From the supplement of paper PMC10307832

Tests used:
Assay in all cases: relative viability (nuclei count vs DMSO), 5 days (fraction); higher = more cells survive
QS11 + Trametinib = compound: C1CC2=C(C1)C=C(C=C2)OC3=NC(=C4C(=N3)N(C=N4)CC5=CC=C(C=C5)C6=CC=CC=C6)N[C@@H](CC7=CC=CC=C7)CO [QS11] + CC(=O)Nc1cccc(-n2c(=O)n(C3CC3)c(=O)c3c(Nc4ccc(I)cc4F)n(C)c(=O)c(C)c32)c1 [Trametinib] (partner 0.02 µM)
Procedure, shortened: (§1)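 Medians of duplicate plates are given as relative viability. That measure is the nuclei count in treated wells divided by the count in vehicle wells. Counts were taken on 4× images of lung cancer cell lines in 1536-well plates, 5 days after pin-tool dosing the day after seeding with one drug alone or a fixed anchor-drug dose plus five library-drug doses (not always all listed) in √10 steps.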

Darinaparsin + Alpelisib = compound: C[As](C)SC[C@H](NC(=O)CC[C@H](N)C(=O)O)C(=O)NCC(=O)O [Darinaparsin] + Cc1nc(NC(=O)N2CCC[C@H]2C(N)=O)sc1-c1ccnc(C(C)(C)C(F)(F)F)c1 [Alpelisib] (partner 2 µM)
Procedure, shortened: as §1

QS11 + Pemetrexed = compound: C1CC2=C(C1)C=C(C=C2)OC3=NC(=C4C(=N3)N(C=N4)CC5=CC=C(C=C5)C6=CC=CC=C6)N[C@@H](CC7=CC=CC=C7)CO [QS11] + Nc1nc2[nH]cc(CCc3ccc(C(=O)N[C@@H](CCC(=O)O)C(=O)O)cc3)c2c(=O)[nH]1 [Pemetrexed] (partner 0.2 µM)
Procedure, shortened: as §1

[1] = compound: C[As](C)SC[C@H](NC(=O)CC[C@H](N)C(=O)O)C(=O)NCC(=O)O [Darinaparsin] + Nc1ncn([C@H]2C[C@H](O)[C@@H](CO)O2)c(=O)n1 [Decitabine] (partner 2 µM)
Procedure, shortened: as §1

Cell Line | relative viability (QS11 + Trametinib; first compound 0.253 µM) | relative viability (QS11 + Trametinib; first compound 0.8 µM) | relative viability (QS11 + Trametinib; first compound 2.53 µM) | relative viability (QS11 + Trametinib; first compound 8 µM) | relative viability (Darinaparsin + Alpelisib; first compound 0.08 µM) | relative viability (Darinaparsin + Alpelisib; first compound 0.8 µM) | relative viability (Darinaparsin + Alpelisib; first compound 2.53 µM) | relative viability (Darinaparsin + Alpelisib; first compound 8 µM) | relative viability (QS11 + Pemetrexed; first compound 0.08 µM) | relative viability (QS11 + Pemetrexed; first compound 0.253 µM) | relative viability (QS11 + Pemetrexed; first compound 0.8 µM) | relative viability (QS11 + Pemetrexed; first compound 2.53 µM) | relative viability (QS11 + Pemetrexed; first compound 8 µM) | relative viability ([1]; first compound 0.08 µM) | relative viability ([1]; first compound 0.8 µM) | relative viability ([1]; first compound 2.53 µM) | relative viability ([1]; first compound 8 µM) | relative viability (QS11 + Trametinib; first compound 0.08 µM)
EPLC-272H | 0.32 | 0.3 | 0.28 | 0.3 | 1.03 | 0.931 | 0.851 | 1.15 | 0.306 | 0.366 | 0.344 | 0.313 | 0.315 | 0.377 | 0.37 | 0.353 | 0.329 | –
H3255 | 0.703 | – | 0.631 | 0.585 | 0.761 | 0.626 | 0.636 | 0.792 | 0.578 | 0.632 | 0.532 | 0.562 | 0.53 | 0.634 | 0.587 | 0.662 | 0.674 | 0.577
HARA | – | 0.562 | 0.48 | 0.634 | 0.868 | 0.682 | 0.756 | 1.19 | 0.251 | – | 0.215 | 0.244 | 0.256 | 0.6 | – | 0.51 | 0.603 | 0.652
HCC-15 | 0.388 | 0.335 | 0.319 | 0.314 | 0.914 | 0.95 | 0.867 | 1.08 | 0.213 | 0.232 | 0.223 | 0.274 | 0.227 | 0.727 | 0.565 | 0.643 | 0.722 | 0.307
HCC-44 | 0.908 | 0.599 | 1.02 | 1.02 | 0.833 | 0.92 | 0.576 | 0.979 | 0.72 | 0.581 | 0.416 | 0.675 | 0.659 | 1.05 | 0.966 | 0.924 | 0.977 | 1.19
HCC-78 | 0.765 | 0.643 | 0.883 | 0.781 | 0.363 | 0.301 | 0.358 | 0.259 | 0.918 | 0.935 | 0.894 | 0.936 | 0.857 | 0.729 | 0.668 | 0.65 | 0.853 | 0.771
HCC-366 | 0.346 | – | 0.218 | 0.116 | 0.753 | 0.424 | 0.329 | 0.706 | 0.163 | 0.139 | – | 0.175 | 0.136 | 0.407 | – | 0.413 | 0.352 | 0.348
HCC-827 | 0.559 | 0.595 | 0.698 | 0.557 | 1.05 | 1.04 | 1.01 | 1.04 | 0.262 | 0.274 | 0.258 | 0.257 | 0.35 | 0.284 | 0.316 | 0.32 | 0.363 | 0.507
HOP-62 | 0.393 | 0.38 | 0.357 | 0.42 | 1.24 | 0.755 | 0.786 | 0.991 | 0.414 | 0.371 | 0.276 | 0.23 | 0.283 | 0.233 | 0.27 | 0.235 | 0.23 | 0.373
LC-2-ad | 0.985 | 0.606 | 0.843 | 0.962 | 0.954 | 0.832 | 0.856 | 1.01 | 0.273 | 0.27 | 0.27 | 0.294 | 0.26 | 0.905 | 0.838 | 0.786 | 0.899 | 0.906
LCLC-103H | 0.681 | – | 0.68 | 0.595 | 0.945 | 0.982 | 0.915 | 1.11 | 0.454 | 0.475 | – | 0.463 | 0.446 | 0.788 | 0.722 | 0.715 | 0.8 | 0.705
LK-2 | 1.03 | 0.778 | 0.81 | 0.841 | 1.37 | – | 1.31 | 1.42 | 0.241 | 0.318 | 0.267 | 0.27 | 0.284 | 0.281 | 0.235 | 0.277 | 0.333 | 0.702
LOU-NH91 | 0.742 | 0.743 | 0.819 | 0.767 | 0.703 | 0.718 | 0.749 | 0.68 | 0.347 | 0.369 | 0.351 | 0.457 | 0.306 | 0.876 | 0.771 | 0.782 | 0.799 | 0.797
LU99A | 0.626 | 0.517 | 0.5 | 0.533 | 0.592 | 0.52 | 0.457 | 0.606 | 0.169 | 0.172 | 0.173 | 0.169 | 0.168 | 0.887 | 0.863 | 0.925 | 1.06 | 0.532
LXF-289 | 0.711 | 0.583 | 0.621 | 0.629 | 1.11 | 1.06 | 0.851 | 1.16 | 0.873 | 0.931 | 0.761 | 0.9 | 0.876 | 0.41 | 0.424 | 0.347 | 0.4 | 0.671
NCI-H23 | 0.385 | 0.283 | 0.297 | 0.318 | 0.926 | 0.582 | 0.711 | 0.681 | 0.766 | 0.582 | 0.694 | 0.657 | 0.689 | 0.341 | 0.292 | 0.35 | 0.311 | 0.359
NCI-H322M | 0.543 | 0.565 | 0.582 | 0.513 | 0.89 | 0.692 | 0.632 | 0.787 | 0.556 | 0.59 | 0.66 | 0.822 | 0.735 | 0.704 | 0.686 | 0.577 | 0.724 | 0.547
NCI-H358 | 0.136 | 0.167 | 0.153 | 0.157 | 0.922 | 0.87 | 0.817 | 0.994 | 0.167 | 0.175 | 0.146 | 0.186 | 0.168 | 0.189 | 0.21 | 0.231 | 0.193 | 0.117
